Results as given in patent US20230310445A1, “LOX ENZYME INHIBITING METHODS AND COMPOSITIONS” (ANOVIA BIOSCIENCES, INC., priority 2020, published 2023).

What was measured:
[1] = biological target: T1, Recombinant human LOXL2 (lysyl oxidase like 2) (Homo sapiens, UniProt Q9Y4K0); assay: LOXL2 inhibition assay (fluorometric, cadaverine/Amplex Red/HRP); assay type: biochemical; details: IC50 class; recombinant human LOXL2, cadaverine substrate; read-out: Activity Range LOXL2
T1 construct: purchased R&D systems
T1 sequence (Q9Y4K0 26-774): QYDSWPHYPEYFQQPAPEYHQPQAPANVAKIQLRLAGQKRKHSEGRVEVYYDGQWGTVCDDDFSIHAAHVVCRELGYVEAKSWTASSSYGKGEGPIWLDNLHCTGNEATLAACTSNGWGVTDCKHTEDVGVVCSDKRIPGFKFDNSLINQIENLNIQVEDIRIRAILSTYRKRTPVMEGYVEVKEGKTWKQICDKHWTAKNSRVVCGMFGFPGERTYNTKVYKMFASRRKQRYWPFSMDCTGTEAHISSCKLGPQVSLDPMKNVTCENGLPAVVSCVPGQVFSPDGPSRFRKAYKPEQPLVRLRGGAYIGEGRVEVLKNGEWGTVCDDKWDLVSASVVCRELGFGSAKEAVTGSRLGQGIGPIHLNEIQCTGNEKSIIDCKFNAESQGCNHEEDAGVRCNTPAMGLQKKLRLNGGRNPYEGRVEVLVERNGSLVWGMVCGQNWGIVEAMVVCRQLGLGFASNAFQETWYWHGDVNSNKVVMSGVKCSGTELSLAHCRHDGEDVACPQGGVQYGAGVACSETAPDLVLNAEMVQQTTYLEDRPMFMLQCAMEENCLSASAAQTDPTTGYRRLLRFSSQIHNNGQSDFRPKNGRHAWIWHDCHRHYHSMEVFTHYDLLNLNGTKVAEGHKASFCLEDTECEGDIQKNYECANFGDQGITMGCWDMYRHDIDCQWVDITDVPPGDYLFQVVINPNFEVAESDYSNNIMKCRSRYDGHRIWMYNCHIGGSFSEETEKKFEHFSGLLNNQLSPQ
Procedure: (§1) The ability of compounds to inhibit one or more of the lysyl oxidases LOXL2 and/or LOXL3 was determined using a fluorometric assay. This assay measures the activity of lysyl oxidases by coupling the reaction with horseradish peroxidase-catalyzed […]. The activity assay protocol uses cadaverine as substrate that releases hydrogen peroxide upon transformation by the specific LOX family enzyme present in the sample. Hydrogen peroxide is in turn detected using a red fluorescence substrate for HRP-coupled reactions (Amplex Red Enzyme Assays, Thermo Scientific Fisher). This leads to increase in fluorescence that can be easily detected at Ex/Em=540/590 nm in a fluorescence microplate reader.
Enzymes: Recombinant human LOXL2 (lysyl oxidase like 2) and recombinant human LOXL3 (lysyl oxidase like 3) were purchased from R&D systems and assays were performed in 1.2 M urea, 50 mM sodium borate buffer pH 8.0, and 10 mM CaCl.
Reaction: Final concentration in the LOXL2 and LOXL3 assays were as following and performed in a total volume of […]:
Experimental procedure: 5 μl of freshly prepared reaction buffer were delivered to reaction wells. Compounds were resuspended in 100% DMSO at 10 mM and delivered into buffer using acoustic technology (Echo550; nanoliter range). A 3× solution of LOXL2 or LOXL3 in reaction buffer was prepared (“enzyme solution”) and 5 μL of enzyme solution was added into the reaction wells. Buffer only was added to column 1 for no protein control. Reactions were incubated for 30 minutes at 37° C. A 3×mixture of cadaverine, Amplex Red, and HRP (“Substrate/Detection Mix) was prepared and subsequently 5 μL of the mixture added to each reaction well. Progress of reactions was monitored for 60 minutes at 37° C. using Clariostar plate reader (ex 530-12, ems 600-40). For all activity assays, pan-LOX inhibitor CCT365623 (Tang et al, 2017) and LOXL2/LOXL3 inhibitor PAT-1251 (PharmaKea) were included as standards.
Data analysis: Slope of the linear portion of the progress curve was calculated using Clariostar software. Typical analysis interval was between 8-30 min, but varied between experiments. The background subtracted signals (No protein wells are considered as background) were converted to % activity relative to DMSO controls. Data was analyzed using GraphPad Prism 4 with “sigmoidal dose-response (variable slope)”; 4 parameters with Hill Slope. Constraints: Bottom=Constant equal to 0. Top=Must be less than 120.

[2] = biological target: T2, Bovine lysyl oxidase (LOX) (Bos taurus, UniProt P33072); assay: LOX inhibition assay (fluorometric, cadaverine/Amplex Red/HRP); assay type: biochemical; details: IC50 class; bovine tendon LOX, cadaverine substrate; read-out: Activity Range LOX
T2 construct: from tissue; host or cells: adult bovine tendon
T2 sequence (P33072 170-418): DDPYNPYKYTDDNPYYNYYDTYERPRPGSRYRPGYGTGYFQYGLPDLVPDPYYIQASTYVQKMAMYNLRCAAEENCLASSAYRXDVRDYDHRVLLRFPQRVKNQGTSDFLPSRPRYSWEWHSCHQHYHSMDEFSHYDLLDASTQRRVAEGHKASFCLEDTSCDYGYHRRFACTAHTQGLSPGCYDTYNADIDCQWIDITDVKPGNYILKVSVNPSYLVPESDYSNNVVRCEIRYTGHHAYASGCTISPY
Procedure: as §1, with “prototypic LOX” for “one or more of the lysyl oxidases LOXL2 and/or LOXL3”, “prototypic” for “the specific”, “LOX” for “LOX family”
Enzyme: Bovine lysyl oxidase (LOX) was extracted by adapting the methodology from [Kagan et al. 1979 and Borel et al. 2001.] from bovine tendon: Frozen adult bovine tendon was placed in room temperature water to defrost, and then membranes were removed and the remaining tissue cut into 1 cm pieces. The material was first passed through a course mesh meat grinder, and this mince was passed through a fine mesh grinder. The mince was homogenized in 10 v/w of buffer (16 mM sodium phosphate buffer pH 7.8, 400 mM NaCl) using a Waring blender. The homogenate was centrifuged at 15,000×g for 15 min at 4° C. After centrifugation, the supernatant was discarded and the pellets resuspended in 10 volumes of the same buffer. The mixture was blended again and centrifuged with the same settings. This time the pellets were blended in 3 volumes of extraction buffer (16 mM sodium phosphate buffer pH 7.8) and left to incubate at 4° C. for 2 h. After this time, the slurry was centrifuged with the same settings as described above. The supernatant was used in an ultrafiltration step to remove large proteins by size exclusion through a 30 kDalton filter (EMD Millipore). The filtrate was mixed with DEAE Sephadex (GE Healthcare), or passed over a MonoQ FPLC column. After two washes, one in 16 mM sodium phosphate buffer pH 7.8, 380 mM NaCl, and another in 16 mM sodium phosphate buffer pH 7.8, the proteins were eluted with 16 mM sodium phosphate pH 7.8, 10 μM CuSO4, and 4 M urea. Fractions containing Lox activity were collected and stored frozen at −70° C.
Reaction: Final concentration in the LOX assay was as following and performed in a total volume of […]:
Experimental procedure: 7 μl of freshly prepared reaction buffer were delivered to reaction wells. Compounds were resuspended in 100% DMSO at 10 mM and delivered into buffer using acoustic technology (Echo550; nanoliter range). A 2.85× solution of LOX protein in reaction buffer was prepared (“LOX solution”) and 7 μl of LOX solution was added into the reaction wells. Buffer only was added to column 1 for no protein control. Reactions were incubated for 30 minutes at 37° C. A 3.33× mixture of cadaverine, Amplex Red, and HRP (“Substrate/Detection Mix) was prepared and subsequently 6 μL of the mixture was added to each reaction well. Progress of reactions was monitored for 120 minutes at 37° C. using Clariostar plate reader (ex530-12, ems 600-40). For all activity assays, pan-LOX inhibitor CCT365623 (Tang et al, 2017) and LOXL2/LOXL3 inhibitor PAT-1251 (PharmaKea) were included as standards.
Data analysis: Slope of the linear portion of the progress curve was calculated using Clariostar software. Typical analysis interval was between 20-50 min, but varied between experiments. The background subtracted signals (No protein wells were considered as background) were converted to % activity relative to DMSO controls. Data was analyzed using GraphPad Prism 4 with “sigmoidal dose-response (variable slope)”; 4 parameters with Hill Slope. Constraints: Bottom=Constant equal to 0. Top=Must be less than 120.

| SMILES | IC50 [1] | IC50 [2] |
| --- | --- | --- |
| CN(C)C(=O)[C@H]1C[C@@H](c2ccccc2)CN(S(=O)(=O)c2ccc(CN)s2)C1 (racemic) [Example 9, cis-1-((5-(Aminomethyl)thiophen-2-yl)sulfonyl)-N,N-dimethyl-5-phenylpiperidine-3-carboxamide 2,2,2-trifluoroacetate] | ≤ 500 nM | 500 to 1000 nM |
| NCc1ccc(S(=O)(=O)N2C[C@@H](C(=O)N3CCNCC3)C[C@@H](c3ccccc3)C2)s1 (racemic) [Example 15, cis-(1-((5-(Aminomethyl)thiophen-2-yl)sulfonyl)-5-phenylpiperidin-3-yl)(piperazin-1-yl)methanone 2,2,2-trifluoroacetate] | ≤ 500 nM | 500 to 1000 nM |
| CN1CCN(C(=O)[C@H]2C[C@@H](c3ccccc3)CN(S(=O)(=O)c3ccc(CN)s3)C2)CC1 (racemic) [Example 17, cis-(1-((5-(Aminomethyl)thiophen-2-yl)sulfonyl)-5-phenylpiperidin-3-yl)(4-methylpiperazin-1-yl)methanone 2,2,2-trifluoroacetate] | ≤ 500 nM | 500 to 1000 nM |
| CS(=O)(=O)N1C[C@H](Oc2cccc(CN)c2)C[C@H](c2ccccc2)C1 (racemic) [Example 25, cis-(3-((-1-(Methylsulfonyl)-5-phenylpiperidin-3-yl)oxy)phenyl)methanamine 2,2,2-trifluoroacetate] | 500 to 1000 nM | 1000 to 30000 nM |
| CS(=O)(=O)N1C[C@H](Oc2cc(CN)ccc2F)C[C@H](c2ccccc2)C1 (racemic) [Example 69, cis-(4-Fluoro-3-((-1-(methylsulfonyl)-5-phenylpiperidin-3-yl)oxy)phenyl)methanamine 2,2,2-trifluoroacetate] | ≤ 500 nM | > 30000 nM |
| NCc1cccc(S(=O)(=O)N2C[C@@H](C(=O)N3CCOCC3)C[C@@H](c3ccccc3)C2)n1 (racemic) [Example 114, cis-(1-((6-(Aminomethyl)pyrid-2-yl)sulfonyl)-5-phenylpiperidin-3-yl)(morpholino)methanone] | > 30000 nM |  |

The next lines start with the values.

| IC50 [1] | IC50 [2] | SMILES |
| --- | --- | --- |
| ≤ 500 nM | ≤ 500 nM | NCc1ccc(S(=O)(=O)N2C[C@@H](C(=O)N3CCCCC3)C[C@@H](c3ccccc3)C2)s1 (racemic) [Example 11, cis-(1-((5-(Aminomethyl)thiophen-2-yl)sulfonyl)-5-phenylpiperidin-3-yl)(piperidin-1-yl)methanone 2,2,2-trifluoroacetate] |
| 1000 to 30000 nM | 1000 to 30000 nM | CS(=O)(=O)[C@@H]1C[C@H](Oc2ccc(CN)cc2)CN(c2ccccc2)C1 (racemic) [Example 20, cis-(4-((-5-(Methylsulfonyl)-1-phenylpiperidin-3-yl)oxy)phenyl)methanamine2,2,2-trifluoroacetate] |
| 500 to 1000 nM | > 30000 nM | CS(=O)(=O)[C@@H]1C[C@H](Oc2cccc(CN)c2)CN(c2ccccc2)C1 (racemic) [Example 21, cis-(3-((-5-(Methylsulfonyl)-1-phenylpiperidin-3-yl)oxy)phenyl)methanamine 2,2,2-trifluoroacetate] |
| ≤ 500 nM | 1000 to 30000 nM | CS(=O)(=O)[C@H]1C[C@@H](S(=O)(=O)c2ccc(CN)cc2)CN(c2ccccc2)C1 (racemic) [Example 22, cis-(4-((5-(Methylsulfonyl)-1-phenylpiperidin-3-yl)sulfonyl)phenyl)methanamine 2,2,2-trifluoroacetate] |
| 1000 to 30000 nM | > 30000 nM | CS(=O)(=O)N1C[C@H](Oc2ccc(CN)cc2)C[C@H](c2ccccc2)C1 (racemic) [Example 24, cis-(4-((1-(Methylsulfonyl)-5-phenylpiperidin-3-yl)oxy)phenyl)methanamine 2,2,2-trifluoroacetate] |
| ≤ 500 nM | 1000 to 30000 nM | CS(=O)(=O)N1C[C@@H](c2ccccc2)C[C@@H](S(=O)(=O)c2ccc(CN)cc2)C1 (racemic) [Example 26, cis-(4-((1-(Methylsulfonyl)-5-phenylpiperidin-3-yl)sulfonyl)phenyl)methanamine 2,2,2-trifluoroacetate] |
| ≤ 500 nM | 1000 to 30000 nM | CS(=O)(=O)N1C[C@@H](c2ccccc2)C[C@@H](S(=O)(=O)c2cccc(CN)c2)C1 (racemic) [Example 27, cis-(3-((1-(Methylsulfonyl)-5-phenylpiperidin-3-yl)sulfonyl)phenyl)methanamine 2,2,2-trifluoroacetate] |
